We go through 7 compounds from patent US20030120049A1, “Non-selective cation channel” (priority 2000, published 2003).

Experiment [1] has as its target T1, OTRPC4 (Mus musculus, UniProt Q9EPK8).
T1 construct: expressed in transfected cells; host or cells: HEK293 (transient, FuGENE 6)
Nature of the experiment: FURA-2 single cell measurement of intracellular calcium in HEK293 cells transiently expressing OTRPC4-GFP. In kind it is cell-based, murine. As to conditions: for effect on cells which expressed OTRPC4: 10 μM. From the text: The cDNA of OTRPC4 was cloned into a eukaryotic expression plasmid containing, at the C-terminal end, a green fluorescent protein (GFP) fusion section (pEGFP-N1). This plasmid was used for the subsequent expression studies. It can be inferred from the nucleotide sequence that the OTRPC4 protein may consist of 871 amino acids, for example, and contains 6 possible transmembranal segments with a sequence between segments 5 and 6 which possibly codes for a pore region of a channel (FIG. 1a). After transient transfection (which was carried out using the FuGENE 6 transfection reagent) of the expression plasmid coding for the OTRPC4-GFP fusion protein in HEK293 cells, dots of fluorescence could be detected in the plasma membrane 24-36 hours later. […] For the following experiments, HEK293 cells were transiently transfected with the above-mentioned expression plasmid containing OTRPC4 and compared, after 24-36 hours, with untransfected control cells.
The influence of extracellular osmolarity on the channel activity of OTRPC4 was investigated. After reducing the osmolarity of the extracellular solution, there was a long, transient and reversible increase in the [Ca^2+]i in the OTRPC4 expressing cells but not in the control cells (FIG. 5). Increasing the osmolarity of the extracellular solution, on the other hand, reduced the [Ca^2+]i (cf. the small diagram in FIG. 4). A significant change in the [Ca^2+]i was observed even when the extracellular solution was changed by 30 mosmol/l. The changes in [Ca^2+]i triggered by changing the osmolarity of the extracellular solution occurred rapidly and reached a peak after about 30 seconds, but varied from cell to cell (see FIG. 4). After returning to the normoosmolar solution, [Ca^2+]i rapidly returned to its base value. In order to distinguish between an influx of calcium from the extracellular medium and a release of calcium from intracellular calcium stores, calcium was replaced by EGTA in the extracellular medium while the cells were exposed to a hypotonic medium. Under these conditions, the FURA-2 signal returned to the base value (see FIG. 4).
The members of the STRPC subfamily of the TRPC channels are activated by signals produced by the activation of the phospholipase C-β (PCL-β) (6-15).
The addition of capsaicin (10 μM) and resiniferatoxin (10 μM) as well as a brief increase in the temperature to 65° C. had no effect on cells which expressed OTRPC4.

Experiment [2] deals with T1, OTRPC4. Nature of the experiment: FURA-2 measurement of intracellular Ca2+ with luminiscence spectrometer in OTRPC4 transfected HEK293 cells. It is filed as cell-based, murine. As to conditions: 100 μM; osmolarity lowered from 320 mosmol/l to 220 mosmol/l. On the procedure: For testing the function of OTRPC4 transfected HEK293 cells with a further method, intracellular Ca^2+ concentration was measured with FURA-2. The experiments were conducted with luminiscence spectrometer (LS 50 B, Perkin Elmer).
For determining the extent of calcium influx into the cells, maximal intracellular Ca^2+ was induced by lonomycin. This [Ca^2+]i could be reverted to its original value by EGTA. Influx of extracellular calcium via OTRPC4 was demostrated by showing change of the intracellular Ca^2+ concentration by lowering osmolarity by 100 mosmol/l (from 320 mosmol/l to 220 mosmol/l). The hypotonic solution led to an increase in [Ca^2+]i which could be quenched by EGTA. Half of the [Ca^2+] increasing effect of hypotonic solution could be blocked by addition of LOE908 (Embaco A, Romanin C, Birke F W, Kukovetz W R, Groschner K: Inhibition of a store-operated Ca2+ entry pathway in human endothelial cells by the isoquinoline derivative LOE 908. British Journal of Pharmacology (1996) 119 702-706) (100 μM) (FIG. 10).

Experiment [3] deals with T1, OTRPC4. Nature of the experiment: Perforated patch measurement of cation currents triggered by hypotonic solution in OTRPC4-expressing cells. As to conditions: 50 μM. It is filed as cell-based, murine. How it is done:
(§1) Because of the rapid “run-down” of the ion fluxes, the other experiments were carried out using the so-called perforated patch method. Measured in standard extracellular solution, the current-voltage curve, measured by applying voltage ramps, show an outwardly rectifying form with a reverse potential of about 0 mV (FIG. 6). When the Na^+- and Ca^2+-ions were removed from the extracellular solution, the inward flux disappeared and the reverse potential moved into the negative area. The average ion fluxes at −100 and +100 mV measured with the aid of ramp protocols were −12.8±1.1 and +32.2±2.7 pA/pF, respectively (n=17, Cm=9.6±5.5 pF).
(§2) Replacing the extracellular standard solution with a solution which contained 100 mM NaCl and 100 mM mannitol (osmolarity: 320 mosmol/l) shifted Er to a more negative potential (−11.2±1.6 mV, n=14), as might be expected from a current carried by cations when the extracellular sodium concentration is reduced (see FIG. 6). Moreover, the inwardly and outwardly directed current components were reduced (−7.0±0.8 and 22.7±2.7 pA/pF at −100 and 100 mV, respectively) (see FIG. 6). The use of a hypoosmolar solution (215 mosmol/l) led, after a delay of a few seconds (about 18 seconds on average) to an increase in both the inwardly and outwardly directed currents (FIG. 7). This increase reached its maximum after 50 seconds, on average. […]

The subject of experiment [4] is chloride channels activated by a change in volume. Nature of the experiment: Perforated patch measurement of currents triggered by hypotonic extracellular solution in control cells. In kind it is cell-based. As to conditions: 50 μM. How it is done:
as §1, §2

T1 sequence (Q9EPK8 whole entry): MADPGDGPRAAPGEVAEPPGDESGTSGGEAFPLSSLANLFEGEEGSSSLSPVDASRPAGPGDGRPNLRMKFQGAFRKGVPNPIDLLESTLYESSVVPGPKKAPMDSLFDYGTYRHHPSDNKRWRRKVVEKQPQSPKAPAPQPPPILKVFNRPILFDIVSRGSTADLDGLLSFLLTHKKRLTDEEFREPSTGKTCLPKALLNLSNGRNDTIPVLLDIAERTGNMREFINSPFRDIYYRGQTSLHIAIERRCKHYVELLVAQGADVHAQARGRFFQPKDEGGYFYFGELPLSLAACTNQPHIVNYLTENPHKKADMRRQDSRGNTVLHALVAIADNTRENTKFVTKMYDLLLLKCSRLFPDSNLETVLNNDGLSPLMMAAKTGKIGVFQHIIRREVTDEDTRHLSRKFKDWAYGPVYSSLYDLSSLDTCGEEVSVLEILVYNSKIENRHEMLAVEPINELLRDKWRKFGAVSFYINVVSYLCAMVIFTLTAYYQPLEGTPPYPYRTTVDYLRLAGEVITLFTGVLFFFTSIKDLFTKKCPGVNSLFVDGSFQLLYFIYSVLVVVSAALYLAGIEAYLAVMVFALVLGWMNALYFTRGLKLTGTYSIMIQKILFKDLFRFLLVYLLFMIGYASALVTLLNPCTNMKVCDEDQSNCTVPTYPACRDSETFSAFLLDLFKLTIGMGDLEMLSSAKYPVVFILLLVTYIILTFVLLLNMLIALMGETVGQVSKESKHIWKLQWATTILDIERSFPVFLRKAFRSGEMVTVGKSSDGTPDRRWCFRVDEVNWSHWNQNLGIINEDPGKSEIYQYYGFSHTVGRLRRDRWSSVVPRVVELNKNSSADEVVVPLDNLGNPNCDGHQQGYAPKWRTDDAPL

On to `[Cl][Gd]([Cl])[Cl]` [GdCl3], for which the “effect on the influx of calcium into OTRPC4-expression cells triggered by hypoosmolarity” value on OTRPC4 [1] (1 mM, HEK293 cells expressing OTRPC4) is given as “no effect”. With `COc1cc2c(cc1OC)C(C(C(=O)N(CCc1ccc(OC)c(OC)c1OC)CCc1ccc(OC)c(OC)c1OC)c1ccccc1)=NCC2` (centres unmarked) [LOE908], at OTRPC4 [2], the “block of the [Ca2+] increasing effect of hypotonic solution” value is recorded as “Half”. As to `[Cl][La]([Cl])[Cl]` [LaCl3], the “inhibition of the influx of calcium into OTRPC4-expression cells triggered by hypoosmolarity” value on OTRPC4 [1] (100 μM, HEK293 cells expressing OTRPC4) is on record as “about 50%”. In the case of `O=C(O)c1cc([N+](=O)[O-])ccc1NCCCc1ccccc1` [NPPB], at OTRPC4 [3], the “cation currents in OTRPC4-expressing cells triggered by hypotonic solution” value is given as “unaffected”. For the same compound, the “activation of currents triggered by hypotonic extracellular solution in control cells” value in experiment [4] is reported as “inhibited completely”. Regarding `COc1cc(CNC(=O)CCCC/C=C/C(C)C)ccc1O` [capsaicin], the “effect on cells which expressed OTRPC4” value on OTRPC4 [1] is given as “no effect”. Same read-out and setting: the value for `C=C(C)[C@]12C[C@@H](C)[C@@]34O[C@](Cc5ccccc5)(O[C@@H]1[C@@H]3C=C(COC(=O)Cc1ccc(O)c(OC)c1)C[C@]1(O)C(=O)C(C)=C[C@@H]41)O2` [resiniferatoxin] was “no effect”.

With `C/C=C(/C)C(=O)O[C@H]1C(C)=C2[C@H]([C@@H]1OC(=O)CCCCCCC)[C@@](C)(OC(C)=O)C[C@H](OC(=O)CCC)[C@@]1(O)[C@H]2OC(=O)[C@@]1(C)O` [thapsigargin], the “amplitude of the FURA-2 signal triggered by the hypotonic medium after emptying the intracellular stores” value on OTRPC4 [1] (5 μM, added previously, OTRPC4-expressing cells) is on record as “did not alter the amplitude”.
